Experiments:
Assay in all cases: Kinase panel radiometric filter binding (33P-ATP)
Assay type in all cases: biochemical
TAK1 = biological target: T1, TAK1 (Homo sapiens, UniProt O43318); design: % activity remaining: dose or concentration left out as unconfirmed; conditions: for % activity remaining: TAK1
T1 sequence (O43318 1-303 limits assumed): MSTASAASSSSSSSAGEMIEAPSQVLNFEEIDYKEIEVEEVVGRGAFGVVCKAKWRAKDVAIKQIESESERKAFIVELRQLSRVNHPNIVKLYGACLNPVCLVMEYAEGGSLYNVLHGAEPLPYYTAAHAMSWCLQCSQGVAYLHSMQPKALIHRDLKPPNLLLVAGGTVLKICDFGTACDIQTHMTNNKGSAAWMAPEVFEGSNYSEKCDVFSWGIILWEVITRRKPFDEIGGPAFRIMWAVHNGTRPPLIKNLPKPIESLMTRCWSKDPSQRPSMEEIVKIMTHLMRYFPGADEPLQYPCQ
Protocol: (§1) Table S4: AMPKA kinase activity data (ADP-Glo assay)
(§2) Compound pIC50 (Fold selectivity
(§3) Table S5. Kinase selectivity screening for 9 and 24 at 1 µM against a general kinase panel of 140 targets
(§4) in radiometric filter binding assay using 33P-γ−ATP at the MRC PPU International Centre for Kinase
(§5) Profiling, University of Dundee. pIC50 values were determined for compounds with <20% activity
(§6) Kinase activity s.d. pIC50 activity s.d. pIC50

MARK4 = biological target: T2, MARK4 (Homo sapiens, UniProt Q96L34); design: % activity remaining: dose or concentration left out as unconfirmed; conditions: for % activity remaining: MARK4
T2 construct: purchased MRC PPU
T2 sequence (Q96L34 1-752): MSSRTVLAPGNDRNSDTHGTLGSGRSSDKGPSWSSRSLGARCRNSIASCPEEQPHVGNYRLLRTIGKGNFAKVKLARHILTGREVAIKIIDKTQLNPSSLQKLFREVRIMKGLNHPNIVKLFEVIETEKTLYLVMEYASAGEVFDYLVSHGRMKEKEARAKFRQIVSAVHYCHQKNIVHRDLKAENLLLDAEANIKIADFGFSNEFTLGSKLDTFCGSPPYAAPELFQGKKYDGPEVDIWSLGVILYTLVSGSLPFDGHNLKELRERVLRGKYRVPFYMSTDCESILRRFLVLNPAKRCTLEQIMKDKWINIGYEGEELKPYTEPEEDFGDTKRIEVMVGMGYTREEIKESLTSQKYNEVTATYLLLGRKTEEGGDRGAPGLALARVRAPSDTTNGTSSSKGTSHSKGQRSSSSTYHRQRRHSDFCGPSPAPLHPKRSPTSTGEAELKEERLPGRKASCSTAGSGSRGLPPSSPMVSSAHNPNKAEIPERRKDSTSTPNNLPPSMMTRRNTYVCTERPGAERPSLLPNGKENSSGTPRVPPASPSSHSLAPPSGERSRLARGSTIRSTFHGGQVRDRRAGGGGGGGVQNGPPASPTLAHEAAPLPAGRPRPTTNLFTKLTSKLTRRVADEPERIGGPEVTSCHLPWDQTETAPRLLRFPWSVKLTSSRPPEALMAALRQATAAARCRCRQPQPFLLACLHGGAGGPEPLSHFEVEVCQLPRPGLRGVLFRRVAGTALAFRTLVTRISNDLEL
Protocol: as §1, §2, §3, §4, §5, §6

MST3 = MST3 (Homo sapiens, UniProt Q9Y6E0); design: % activity remaining: dose or concentration left out as unconfirmed; conditions: for % activity remaining: MST3
Protocol: as §1, §2, §3, §4, §5, §6

VEG-FR = biological target: T3, VEG-FR (Homo sapiens, UniProt P17948); design: % activity remaining: dose or concentration left out as unconfirmed; conditions: for % activity remaining: VEG-FR
T3 sequence (P17948 784-1338 limits assumed): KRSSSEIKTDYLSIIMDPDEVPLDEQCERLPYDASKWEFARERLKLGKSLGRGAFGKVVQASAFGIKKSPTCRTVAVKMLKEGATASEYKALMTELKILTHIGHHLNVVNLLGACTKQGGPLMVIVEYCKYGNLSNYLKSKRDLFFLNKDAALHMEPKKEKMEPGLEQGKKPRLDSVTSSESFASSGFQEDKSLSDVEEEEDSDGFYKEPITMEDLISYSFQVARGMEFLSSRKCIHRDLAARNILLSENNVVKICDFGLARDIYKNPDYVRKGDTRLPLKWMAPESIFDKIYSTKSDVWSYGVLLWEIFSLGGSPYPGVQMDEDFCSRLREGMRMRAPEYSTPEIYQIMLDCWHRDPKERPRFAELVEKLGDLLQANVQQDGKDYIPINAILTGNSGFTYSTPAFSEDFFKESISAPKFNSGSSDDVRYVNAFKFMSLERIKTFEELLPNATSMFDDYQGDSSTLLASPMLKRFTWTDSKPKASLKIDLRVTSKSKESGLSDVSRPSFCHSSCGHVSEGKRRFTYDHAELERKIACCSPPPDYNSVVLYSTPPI
Protocol: as §1, §2, §3, §4, §5, §6

MAP4K5 = MAP4K5 (Homo sapiens, UniProt Q9Y4K4); design: % activity remaining: dose or concentration left out as unconfirmed; conditions: for % activity remaining: MAP4K5
Protocol: as §1, §2, §3, §4, §5, §6

MARK2 = biological target: T4, MARK2 (Homo sapiens, UniProt Q7KZI7); design: % activity remaining: dose or concentration left out as unconfirmed; conditions: for % activity remaining: MARK2
T4 construct: purchased MRC PPU
Protocol: as §1, §2, §3, §4, §5, §6

JNK2 = JNK2 (Homo sapiens, UniProt P45984); design: dose or concentration left out as unconfirmed
Protocol: as §1, §2, §3, §4, §5, §6

EPH-B3 = EPH-B3 (Homo sapiens, UniProt P54753); design: dose or concentration left out as unconfirmed
Protocol: as §1, §2, §3, §4, §5, §6

ERK2 = ERK2 (Homo sapiens, UniProt P28482); design: dose or concentration left out as unconfirmed
Protocol: as §1, §2, §3, §4, §5, §6

DYRK3 = DYRK3 (Homo sapiens, UniProt O43781); design: dose or concentration left out as unconfirmed
Protocol: as §1, §2, §3, §4, §5, §6

HIPK2 = HIPK2 (Homo sapiens, UniProt Q9H2X6); design: dose or concentration left out as unconfirmed
Protocol: as §1, §2, §3, §4, §5, §6

CLK2 = CLK2 (Homo sapiens, UniProt P49760); design: dose or concentration left out as unconfirmed
Protocol: as §1, §2, §3, §4, §5, §6

LKB1 = LKB1 (Homo sapiens, UniProt Q15831); design: dose or concentration left out as unconfirmed
Protocol: as §1, §2, §3, §4, §5, §6

EF2K = EF2K (Homo sapiens, UniProt O00418); design: dose or concentration left out as unconfirmed
Protocol: as §1, §2, §3, §4, §5, §6

BRSK2 = BRSK2 (Homo sapiens, UniProt Q8IWQ3); design: dose or concentration left out as unconfirmed
Protocol: as §1, §2, §3, §4, §5, §6

[1] = radiometric filter binding panel

T4 sequence (Q7KZI7 whole entry): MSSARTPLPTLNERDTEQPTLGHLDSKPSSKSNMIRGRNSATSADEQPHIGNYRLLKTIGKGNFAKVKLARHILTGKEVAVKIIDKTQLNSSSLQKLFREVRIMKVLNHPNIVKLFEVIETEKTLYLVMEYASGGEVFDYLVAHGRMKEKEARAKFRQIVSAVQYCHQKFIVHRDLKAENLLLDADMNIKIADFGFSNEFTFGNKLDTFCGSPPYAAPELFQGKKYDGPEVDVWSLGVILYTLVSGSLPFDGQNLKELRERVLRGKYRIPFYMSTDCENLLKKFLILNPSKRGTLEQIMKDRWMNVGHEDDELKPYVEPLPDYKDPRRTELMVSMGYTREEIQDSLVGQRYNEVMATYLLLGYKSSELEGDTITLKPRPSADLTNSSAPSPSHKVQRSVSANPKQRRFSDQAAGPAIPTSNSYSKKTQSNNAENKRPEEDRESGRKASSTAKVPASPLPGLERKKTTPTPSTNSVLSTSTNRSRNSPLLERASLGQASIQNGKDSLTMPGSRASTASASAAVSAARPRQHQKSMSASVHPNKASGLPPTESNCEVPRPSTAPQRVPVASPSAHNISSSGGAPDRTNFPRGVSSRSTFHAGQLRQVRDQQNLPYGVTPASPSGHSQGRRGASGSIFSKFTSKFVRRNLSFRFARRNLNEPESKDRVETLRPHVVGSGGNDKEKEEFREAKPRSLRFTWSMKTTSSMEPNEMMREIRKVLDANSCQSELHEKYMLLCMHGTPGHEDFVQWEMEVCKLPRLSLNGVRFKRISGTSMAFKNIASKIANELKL
Chain of MAP4K5 (Q9Y4K4 whole entry, species assumed): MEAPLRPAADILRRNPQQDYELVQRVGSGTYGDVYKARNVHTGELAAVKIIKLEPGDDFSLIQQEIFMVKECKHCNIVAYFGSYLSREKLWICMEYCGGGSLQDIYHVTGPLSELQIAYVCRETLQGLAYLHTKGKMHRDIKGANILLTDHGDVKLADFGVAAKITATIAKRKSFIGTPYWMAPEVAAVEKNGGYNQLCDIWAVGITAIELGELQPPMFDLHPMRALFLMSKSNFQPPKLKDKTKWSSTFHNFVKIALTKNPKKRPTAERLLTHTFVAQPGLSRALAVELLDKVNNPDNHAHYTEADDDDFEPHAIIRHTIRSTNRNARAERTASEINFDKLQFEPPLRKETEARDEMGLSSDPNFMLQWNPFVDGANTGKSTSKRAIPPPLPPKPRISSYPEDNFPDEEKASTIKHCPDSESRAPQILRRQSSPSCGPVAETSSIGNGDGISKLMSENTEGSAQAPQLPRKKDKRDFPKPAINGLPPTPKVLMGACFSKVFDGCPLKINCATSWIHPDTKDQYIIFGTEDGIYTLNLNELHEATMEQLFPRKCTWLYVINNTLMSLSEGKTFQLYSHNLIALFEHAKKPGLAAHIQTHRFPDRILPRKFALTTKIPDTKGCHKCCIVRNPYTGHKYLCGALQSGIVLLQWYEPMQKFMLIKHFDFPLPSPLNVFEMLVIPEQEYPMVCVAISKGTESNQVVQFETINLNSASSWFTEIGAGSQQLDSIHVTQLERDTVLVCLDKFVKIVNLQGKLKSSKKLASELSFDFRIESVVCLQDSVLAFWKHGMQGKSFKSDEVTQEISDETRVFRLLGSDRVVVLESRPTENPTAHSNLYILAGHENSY
Chain of MST3 (Q9Y6E0 whole entry, species assumed): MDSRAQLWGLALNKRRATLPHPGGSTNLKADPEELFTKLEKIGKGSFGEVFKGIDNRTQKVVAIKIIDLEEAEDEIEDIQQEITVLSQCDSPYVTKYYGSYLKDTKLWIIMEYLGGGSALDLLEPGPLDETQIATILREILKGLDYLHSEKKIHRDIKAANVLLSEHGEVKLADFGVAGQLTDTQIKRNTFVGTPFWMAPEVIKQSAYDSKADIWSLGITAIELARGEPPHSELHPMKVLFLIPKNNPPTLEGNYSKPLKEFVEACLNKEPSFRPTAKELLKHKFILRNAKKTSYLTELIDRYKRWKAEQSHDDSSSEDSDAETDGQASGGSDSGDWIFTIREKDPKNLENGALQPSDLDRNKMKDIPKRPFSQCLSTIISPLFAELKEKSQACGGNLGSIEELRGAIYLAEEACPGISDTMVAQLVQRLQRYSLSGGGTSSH
Chain of ERK2 (P28482 whole entry): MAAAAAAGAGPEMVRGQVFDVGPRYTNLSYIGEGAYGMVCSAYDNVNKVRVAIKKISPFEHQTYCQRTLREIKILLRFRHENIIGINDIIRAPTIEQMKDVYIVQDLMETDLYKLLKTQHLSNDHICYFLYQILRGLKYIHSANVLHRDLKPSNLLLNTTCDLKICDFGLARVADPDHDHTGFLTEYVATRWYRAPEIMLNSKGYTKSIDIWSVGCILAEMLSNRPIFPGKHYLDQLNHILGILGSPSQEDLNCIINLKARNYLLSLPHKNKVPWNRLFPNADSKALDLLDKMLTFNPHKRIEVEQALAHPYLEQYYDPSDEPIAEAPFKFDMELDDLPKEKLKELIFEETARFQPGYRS
Chain of JNK2 (P45984 whole entry): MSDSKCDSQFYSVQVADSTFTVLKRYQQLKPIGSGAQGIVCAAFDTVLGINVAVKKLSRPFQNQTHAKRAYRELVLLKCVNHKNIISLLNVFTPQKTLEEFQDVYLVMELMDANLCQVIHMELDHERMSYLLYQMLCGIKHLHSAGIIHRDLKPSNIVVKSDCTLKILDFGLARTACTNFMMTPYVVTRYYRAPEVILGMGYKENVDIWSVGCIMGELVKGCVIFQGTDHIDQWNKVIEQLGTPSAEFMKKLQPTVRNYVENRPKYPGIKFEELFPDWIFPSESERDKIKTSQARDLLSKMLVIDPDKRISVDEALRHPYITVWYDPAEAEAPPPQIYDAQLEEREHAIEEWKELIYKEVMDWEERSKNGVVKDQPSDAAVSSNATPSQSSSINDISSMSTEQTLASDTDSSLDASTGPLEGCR
Chain of BRSK2 (Q8IWQ3 whole entry): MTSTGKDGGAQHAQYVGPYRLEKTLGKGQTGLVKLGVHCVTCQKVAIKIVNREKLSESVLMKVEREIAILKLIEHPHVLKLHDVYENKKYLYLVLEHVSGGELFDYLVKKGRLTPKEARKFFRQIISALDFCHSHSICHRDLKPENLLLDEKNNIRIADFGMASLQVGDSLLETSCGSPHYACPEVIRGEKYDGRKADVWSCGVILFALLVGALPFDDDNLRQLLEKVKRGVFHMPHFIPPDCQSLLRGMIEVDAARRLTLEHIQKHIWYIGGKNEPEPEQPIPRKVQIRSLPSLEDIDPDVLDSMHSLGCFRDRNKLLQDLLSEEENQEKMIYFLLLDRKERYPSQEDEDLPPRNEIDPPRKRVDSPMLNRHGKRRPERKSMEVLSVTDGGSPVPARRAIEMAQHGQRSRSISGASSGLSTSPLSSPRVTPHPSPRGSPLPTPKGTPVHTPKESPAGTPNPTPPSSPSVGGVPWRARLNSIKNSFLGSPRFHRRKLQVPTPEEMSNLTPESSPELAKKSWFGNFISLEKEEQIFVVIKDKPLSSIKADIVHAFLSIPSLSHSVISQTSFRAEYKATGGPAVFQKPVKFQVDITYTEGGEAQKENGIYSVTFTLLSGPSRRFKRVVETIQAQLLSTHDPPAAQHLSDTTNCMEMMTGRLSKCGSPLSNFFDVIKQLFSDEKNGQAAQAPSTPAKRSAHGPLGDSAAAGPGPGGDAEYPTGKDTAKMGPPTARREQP
Chain of DYRK3 (O43781 whole entry): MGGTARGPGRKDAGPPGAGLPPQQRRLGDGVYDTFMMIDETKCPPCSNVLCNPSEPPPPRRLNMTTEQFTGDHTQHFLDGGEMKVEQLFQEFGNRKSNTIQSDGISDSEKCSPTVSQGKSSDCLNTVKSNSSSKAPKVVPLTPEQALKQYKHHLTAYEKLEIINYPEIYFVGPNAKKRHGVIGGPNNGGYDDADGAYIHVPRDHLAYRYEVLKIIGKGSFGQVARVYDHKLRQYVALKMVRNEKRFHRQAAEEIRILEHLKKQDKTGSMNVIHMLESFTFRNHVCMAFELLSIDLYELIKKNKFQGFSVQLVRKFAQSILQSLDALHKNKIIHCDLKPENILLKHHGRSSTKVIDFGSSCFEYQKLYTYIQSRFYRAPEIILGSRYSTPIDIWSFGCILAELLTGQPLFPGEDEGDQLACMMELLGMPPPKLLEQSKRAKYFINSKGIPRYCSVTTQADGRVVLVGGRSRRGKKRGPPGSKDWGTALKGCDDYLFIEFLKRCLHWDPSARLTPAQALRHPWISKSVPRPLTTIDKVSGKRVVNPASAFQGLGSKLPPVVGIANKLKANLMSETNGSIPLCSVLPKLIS
Chain of CLK2 (P49760 whole entry): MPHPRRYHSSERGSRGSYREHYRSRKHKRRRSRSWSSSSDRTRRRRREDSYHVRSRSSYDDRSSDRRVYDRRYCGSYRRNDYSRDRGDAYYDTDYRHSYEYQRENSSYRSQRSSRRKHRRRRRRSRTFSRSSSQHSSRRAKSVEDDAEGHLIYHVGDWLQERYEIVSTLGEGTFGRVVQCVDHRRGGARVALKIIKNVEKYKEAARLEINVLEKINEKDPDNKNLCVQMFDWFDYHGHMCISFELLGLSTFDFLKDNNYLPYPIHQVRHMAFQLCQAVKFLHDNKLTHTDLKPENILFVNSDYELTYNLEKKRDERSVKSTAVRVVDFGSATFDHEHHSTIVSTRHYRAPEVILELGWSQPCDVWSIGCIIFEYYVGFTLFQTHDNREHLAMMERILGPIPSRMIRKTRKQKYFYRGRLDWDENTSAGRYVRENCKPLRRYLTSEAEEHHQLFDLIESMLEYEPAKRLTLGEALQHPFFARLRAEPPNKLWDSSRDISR

| Compound | % activity remaining (TAK1) [%] | % activity remaining (MARK4) [%] | % activity remaining (MST3) [%] | % activity remaining (VEG-FR) [%] | % activity remaining (MAP4K5) [%] | % activity remaining (MARK2) [%] | % activity remaining (JNK2) [%] | % activity remaining (EPH-B3) [%] | % activity remaining (ERK2) [%] | % activity remaining (DYRK3) [%] | % activity remaining (HIPK2) [%] | % activity remaining (CLK2) [%] | % activity remaining (LKB1) [%] | % activity remaining (EF2K) [%] | % activity remaining (BRSK2) [%] | other results |
| --- | --- | --- | --- | --- | --- | --- | --- | --- | --- | --- | --- | --- | --- | --- | --- | --- |
| CN1C2CC1CN(c1ccc(Nc3ncc4ccn(CC5CCOCC5)c4n3)cc1)C2 [Compound 24] | 110 | 95 | 84 | 17 | 78 | 101 | 88 | 77 | 114 | 65 | 85 | 90 | 100 | 102 | 75 | IC50 (VEG-FR; radiometric filter binding panel, read-out: VEG-FR pIC50 (converted)): 295 nM |
| Cc1cc(=O)n(C2CCCC2)c2nc(Nc3ccc(N4CC5CC(C4)N5C)cc3)ncc12 [Compound 9] | 6 | 49 | 17 | 71 | 14 | 98 | 35 | 95 | 93 | 74 | 54 | 23 | 104 | 72 | 90 | IC50 (TAK1; radiometric filter binding panel, read-out: TAK1 pIC50 (converted)): 209 nM; inhibition at 1 µM (MARK4; at 1 μM, radiometric filter binding assay, Dundee, read-out: MARK4 single point % inhibition): 51%; MST3 pIC50 (MST3; [1]): > 7; IC50 (MST3; radiometric filter binding panel, read-out: MST3 pIC50 (converted)): 112 nM; MAP4K5 pIC50 (MAP4K5; [1]): > 7; IC50 (MAP4K5; radiometric filter binding panel, read-out: MAP4K5 pIC50 (converted)): 110 nM; inhibition at 1 µM (MARK2; at 1 μM, radiometric filter binding assay, Dundee, read-out: MARK2 single point % inhibition): 2% |
